How the values were obtained:
[1] = Body weight and animal welfare after bleomycin instillation; assay type: in vivo, Sprague-Dawley rats
Description: Animal handling and treatment procedures followed a protocol approved by the Institutional Animal Care and Use Committee. A total of 18 male Sprague-Dawley rats weighing 196±8 g were used. They were divided into three groups of n=6: control, low-dose (LD), and high-dose (HD). A single animal per dose group died immediately after dosing. Therefore, each group was left with n=5. No additional unanticipated mortality occurred for the duration of the experiment.
In brief, rats were first weighed then injected subcutaneously with 0.02 mL/kg body weight (BW) glycopyrrolate to inhibit oral secretions and facilitate insertion of an endotracheal tube. After 10-15 minutes, animals were anesthetized with 3-4% isoflurane in oxygen-enriched air (30% O2, 70% N2).
Other than the initial weight loss, no other outward signs of distress were observed.

lungs of live rats = assay: Proton MRI (S0/T2 bivariate analysis) of lungs after intratracheal bleomycin instillation; assay type: in vivo, Sprague-Dawley rats
Description: In these experiments, three groups of Sprague-Dawley rats (n=5) were instilled intratracheally with bleomycin (2.5 U/kg or 3.5 U/kg) in saline or with saline only. Rats were imaged at 2.0 T using a multi-slice Carr-Purcell-Meilboom-Gill (CPMG) sequence with 6 ms echo spacing. Signal intensity (S0) and T2 were calculated on a pixel-by-pixel basis using images collected before dosing and 1, 2, 4, and 7 weeks after. At each time point, data from dosed animals were compared to controls, and bivariate statistical analysis was employed to classify image pixels containing abnormal tissue. At week 7, pulmonary function tests were performed, then all rats were sacrificed, left lungs were formalin fixed and tri-chrome stained for histological analysis of collagen content, and right lungs were used to measure water and hydroxyproline (collagen) content.
Animal handling and treatment procedures followed a protocol approved by the Institutional Animal Care and Use Committee. A total of 18 male Sprague-Dawley rats weighing 196±8 g were used. […]
MRI Analysis. Images were reconstructed using a standard 2D Fourier transform, then they were read into Mathematica 6.0 (Wolfgram Research, Champaign, Ill.) for further analysis. […] The mean background noise was measured from the first image of each stack. […]
Following segmentation, data for each rat at each time point were written to a columnar data file that contained S0, T2, slice number, and the corresponding pixel coordinates. […] A scatter plot of T2 (y-axis) vs. S0 (x-axis) was then generated to show the clustering of the data and the relationship between the measured parameters (for example, see FIG. 2A). Using a Mathematica script and bivariate statistical analysis, an ellipsoid was calculated that encircled ˜95% of the data points that were heretofore defined as “normal” lung with 95% confidence.
Each dosed animal was compared to the control group at the same time point, and data points within the ellipsoid were deleted as shown in FIG. 4B. The percentage of total pixels that were “abnormal” was calculated for each animal at each time point. […]

bleomycin sulfate
breathing under anesthesia ([1]; 3.5 U/kg BW (HD), weeks 1, 2 and 4): struggle with breathing under anesthesia | body weight change ([1]; both dose groups (2.5 and 3.5 U/kg BW), first week): lost a significant amount of weight | response of the LD group (lungs of live rats; 2.5 U/kg BW intratracheal (LD), after the first two weeks of the study): very mild response | percentage of "abnormal" pixels vs control rats (lungs of live rats; 2.5 U/kg BW intratracheal (LD), by week 4): essentially indistinguishable from the control rats | response (fraction of "abnormal" pixels) compared with LD rats (lungs of live rats; 3.5 U/kg BW intratracheal (HD), throughout the experiment (7 weeks)): stronger response

Source: patent publication US8466678B2, “Method and apparatus for enhanced in vivo MRI imaging” (Battelle Memorial Institute, priority 2009, dated 2013)
